Consider eight molecules from patent US6869956B2, “Methods of treating inflammatory and immune diseases using inhibitors of IκB kinase (IKK)” (Bristol-Myers Squibb Company, priority 2000, dated 2005).

Where a name gives a salt, the structure may show the parent alone.

Series [1] deals with T1, recombinantly expressed IKK-1 (Homo sapiens, UniProt O15111).
T1 construct: made in house
T1 sequence (O15111 1-745): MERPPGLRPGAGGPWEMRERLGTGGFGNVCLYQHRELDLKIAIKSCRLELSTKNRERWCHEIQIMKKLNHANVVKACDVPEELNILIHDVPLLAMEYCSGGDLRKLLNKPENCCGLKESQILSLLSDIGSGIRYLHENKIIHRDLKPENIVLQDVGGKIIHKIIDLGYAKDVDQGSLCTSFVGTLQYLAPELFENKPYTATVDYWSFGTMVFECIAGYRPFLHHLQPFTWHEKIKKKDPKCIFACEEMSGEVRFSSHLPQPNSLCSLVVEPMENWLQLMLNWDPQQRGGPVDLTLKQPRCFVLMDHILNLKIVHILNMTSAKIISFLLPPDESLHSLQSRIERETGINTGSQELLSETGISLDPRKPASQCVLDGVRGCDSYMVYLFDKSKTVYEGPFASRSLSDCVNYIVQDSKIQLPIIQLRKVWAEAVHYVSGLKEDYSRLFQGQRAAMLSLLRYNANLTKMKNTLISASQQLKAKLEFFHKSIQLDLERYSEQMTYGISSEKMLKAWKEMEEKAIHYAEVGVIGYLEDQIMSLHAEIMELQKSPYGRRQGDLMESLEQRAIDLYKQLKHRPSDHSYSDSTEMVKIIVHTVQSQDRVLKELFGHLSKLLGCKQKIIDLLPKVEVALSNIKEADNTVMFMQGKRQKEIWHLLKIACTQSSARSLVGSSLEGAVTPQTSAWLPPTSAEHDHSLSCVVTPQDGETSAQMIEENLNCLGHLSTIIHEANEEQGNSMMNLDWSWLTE
In words: IKK-1 enzyme assay (33P-ATP / IκB-α phosphorylation). It is filed as biochemical. Particulars: 33P-labeled ATP and IκB-α as substrates. As to the method: In this assay, test compound was added to a solution of 0.5 mM IκB-α in 40 mM Tris-HCl, pH 8, containing 4 mM MgCl2, 1 mM dithiothreitol, and 2 mM ^33P-labeled ATP. IKK enzyme (either the multisubunit complex from HeLa cells, recombinantly expressed IKK-1, or recombinantly expressed IKK-2) was then added to initiate the reaction. The multisubunit complex was isolated according to the procedure of Lee et al. [(1997) Cell 88:213-222] or Mercurio et al. [(1997) 278:860-866]. The recombinant IKK-1 and IKK-2 were expressed using the procedure of Burke et al. [(1999) J. Biol. Chem. 274:36146-36152]. After incubating for 10 minutes at 30° C., the reaction was quenched by the addition of EDTA to a final concentration of 30 mM. In order to separate the phosphorylated IκB-α (Santa Cruz Biotechnology; Santa Cruz, Calif.) product from unreacted ATP, sodium dodecylsulfate polyacrylamide gel electrophoresis (SDS-PAGE) was performed. Phosphoimager analysis of the amount of ^33P incorporation into IκB-α was executed using a Molecular Dynamics 445 Phosphoimager, and the inhibition of IKK activity by the test compound was calculated from control samples containing no inhibitor.

One may read the melting point as the temperature, or range, at which the solid turns liquid. The IC50 is the point on the concentration scale where inhibition reaches its midpoint. For `CNc1nc2cc3ccccc3cc2n2c(C)cnc12` [Example 12, 1-methyl-4-methylaminobenzo[g]imidazo[1,2-a]quinoxaline], the melting point lay in the range of 201 to 202 °C. The IC50 in series [1] amounted to 0.23 µM.
As for `Cc1cnc2c(NCCO)nc3cc4ccccc4cc3n12` [Example 18, 1-methyl-4-(2-hydroxyethylamino)benzo[g]imidazo[1,2-a]quinoxaline], the melting point lay in the range of 186 to 188 °C.
On the same count and under the same terms, with `CNCCNc1nc2cc3ccccc3cc2n2c(C)cnc12` (as salt: hydrochloride) [Example 13, 1-methyl-4-(2-N-methylaminoethylamino)benzo[g]imidazo[1,2-a]quinoxaline Hydrochloride] the figure was 265 to 275 °C (dec.).
On to `CNc1nc2cc3ccccc3cc2c2c1ncn2C` [Example 16, 1-methyl-4-methylaminobenzo(g)imidazo(4,5-c)quinoline], for which the IC50 in series [1] stood at 0.8 µM.
Still for that read-out and setting: with `Cn1cnc2c(NCCN)nc3cc4ccccc4cc3c21` [Example 17] the figure was 1 µM; with `CNCCNc1nc2cc3ccccc3cc2n2c(C)cnc12` [Example 13, 1-methyl-4-(2-N-methylaminoethylamino)benzo[g]imidazo[1,2-a]quinoxaline Hydrochloride], 0.35 µM.
Still for that read-out and setting: under `CNc1nc2cc3ccccc3cc2c2c(C)cnn12` [Example 14, 1-methyl-4-methylaminobenzo[g]pyrazolo[1,5-c]quinazoline] stands 0.67 µM.
Turning to `Cc1cnc2c(NCCN3CCCCC3)nc3cc4ccccc4cc3n12` [Example 19, 1-methyl-4-(2-piperidin-1-yl-ethylamino)benzo[g]imidazo[1,2-a]quinoxaline], the melting point was 170 to 172 °C. The IC50 in series [1] was 1.7 µM.
